This test deals with FAS (Homo sapiens, UniProt P49327). In words: FAS assay (Assay #1: residual NADPH detection, or Assay #2: CoA detection with thio-reactive coumarin dye). In kind it is biochemical. Conditions: average IC50, each compound tested two or more times; FAS activity measured through one of the two assays. The method, then: FAS Activity was Measured Through One of the Two Following Assays.
Sequence of FAS (P49327 whole entry): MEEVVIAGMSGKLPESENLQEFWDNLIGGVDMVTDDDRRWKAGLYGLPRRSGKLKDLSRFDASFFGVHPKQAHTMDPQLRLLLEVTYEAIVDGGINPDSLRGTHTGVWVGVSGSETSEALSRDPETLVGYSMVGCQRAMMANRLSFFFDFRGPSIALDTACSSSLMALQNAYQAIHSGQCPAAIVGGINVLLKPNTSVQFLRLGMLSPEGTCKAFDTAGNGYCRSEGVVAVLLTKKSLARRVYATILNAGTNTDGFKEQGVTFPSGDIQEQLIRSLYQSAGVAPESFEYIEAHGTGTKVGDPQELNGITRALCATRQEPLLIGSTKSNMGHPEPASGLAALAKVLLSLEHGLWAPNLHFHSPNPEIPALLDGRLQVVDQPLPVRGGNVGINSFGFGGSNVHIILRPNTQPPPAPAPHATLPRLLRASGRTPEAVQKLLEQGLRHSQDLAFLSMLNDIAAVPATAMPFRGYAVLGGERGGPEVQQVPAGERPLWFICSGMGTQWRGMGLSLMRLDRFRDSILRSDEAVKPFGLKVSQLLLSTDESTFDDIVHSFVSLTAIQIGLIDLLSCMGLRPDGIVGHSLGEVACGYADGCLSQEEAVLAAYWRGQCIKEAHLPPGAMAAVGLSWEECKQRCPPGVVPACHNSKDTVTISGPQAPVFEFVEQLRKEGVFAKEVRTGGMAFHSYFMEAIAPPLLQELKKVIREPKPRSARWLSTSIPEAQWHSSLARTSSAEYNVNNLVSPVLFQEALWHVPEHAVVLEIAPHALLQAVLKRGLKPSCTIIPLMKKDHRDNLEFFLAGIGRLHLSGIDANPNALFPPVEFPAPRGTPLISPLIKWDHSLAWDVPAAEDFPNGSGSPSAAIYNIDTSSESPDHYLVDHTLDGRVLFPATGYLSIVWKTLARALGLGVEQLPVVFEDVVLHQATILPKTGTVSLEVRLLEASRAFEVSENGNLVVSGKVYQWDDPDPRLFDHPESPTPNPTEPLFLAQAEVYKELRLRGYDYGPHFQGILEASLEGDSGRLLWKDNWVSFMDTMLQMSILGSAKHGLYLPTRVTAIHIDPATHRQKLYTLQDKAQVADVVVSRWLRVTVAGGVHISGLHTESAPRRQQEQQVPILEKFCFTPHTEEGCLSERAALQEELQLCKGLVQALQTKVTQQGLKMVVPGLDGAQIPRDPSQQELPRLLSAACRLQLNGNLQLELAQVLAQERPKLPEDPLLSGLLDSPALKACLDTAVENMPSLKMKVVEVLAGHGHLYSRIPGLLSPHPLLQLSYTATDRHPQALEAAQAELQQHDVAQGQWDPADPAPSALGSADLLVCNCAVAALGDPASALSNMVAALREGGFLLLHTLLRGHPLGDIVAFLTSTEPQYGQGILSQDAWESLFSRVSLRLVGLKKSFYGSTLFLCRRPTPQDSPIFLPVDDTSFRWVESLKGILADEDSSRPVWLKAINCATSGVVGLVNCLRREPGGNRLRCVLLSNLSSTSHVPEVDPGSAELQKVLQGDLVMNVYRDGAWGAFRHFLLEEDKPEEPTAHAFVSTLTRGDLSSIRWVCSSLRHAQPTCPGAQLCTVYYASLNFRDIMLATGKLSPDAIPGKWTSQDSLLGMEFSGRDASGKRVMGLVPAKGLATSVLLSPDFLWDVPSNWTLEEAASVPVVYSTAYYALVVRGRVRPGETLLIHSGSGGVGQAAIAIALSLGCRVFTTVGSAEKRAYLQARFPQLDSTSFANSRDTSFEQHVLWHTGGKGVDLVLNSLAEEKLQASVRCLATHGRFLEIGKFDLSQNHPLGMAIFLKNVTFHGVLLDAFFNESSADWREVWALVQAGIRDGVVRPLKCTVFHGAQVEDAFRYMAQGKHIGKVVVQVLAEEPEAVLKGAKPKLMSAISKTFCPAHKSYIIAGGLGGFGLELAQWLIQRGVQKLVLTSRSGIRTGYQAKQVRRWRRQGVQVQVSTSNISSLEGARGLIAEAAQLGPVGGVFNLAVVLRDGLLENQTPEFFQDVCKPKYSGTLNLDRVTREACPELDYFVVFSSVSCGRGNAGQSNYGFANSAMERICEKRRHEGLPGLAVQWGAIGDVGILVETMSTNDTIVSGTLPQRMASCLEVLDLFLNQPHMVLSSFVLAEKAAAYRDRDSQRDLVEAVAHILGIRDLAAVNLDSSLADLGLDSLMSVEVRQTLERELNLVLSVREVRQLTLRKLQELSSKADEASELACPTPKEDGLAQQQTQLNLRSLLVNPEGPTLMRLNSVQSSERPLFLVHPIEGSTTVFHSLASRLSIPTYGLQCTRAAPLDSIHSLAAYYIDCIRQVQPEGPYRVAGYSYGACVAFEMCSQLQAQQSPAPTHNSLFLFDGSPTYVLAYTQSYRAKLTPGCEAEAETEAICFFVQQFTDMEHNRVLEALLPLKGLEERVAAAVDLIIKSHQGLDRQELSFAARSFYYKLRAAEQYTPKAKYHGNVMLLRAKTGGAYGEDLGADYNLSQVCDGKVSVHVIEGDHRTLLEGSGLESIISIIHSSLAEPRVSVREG
Inhibition of FAS activity can be measured based on the detection of residual NADPH substrate after the FAS assay is quenched. This assay is run as a 10 μL endpoint assay in 384-well format, where the reaction contains 20 μM malonyl-CoA, 2 μM acetyl-CoA, 30 μM NADPH and 40 nM FAS in 50 mM sodium phosphate, pH 7.0. The assay is run by sequentially dispensing 5 ul of a malonyl-CoA solution, then enzyme solution (containing the acetyl-CoA, and NADPH) into a black, low volume assay plate (Greiner 784076) pre-dispensed with […] compound solutions in DMSO. The reaction is incubated at ambient temperature for 60 minutes, then quenched with 5 μL of a developing solution composed of 90 μM resazurin, 0.3 IU/ml diaphorase in 50 mM sodium phosphate, pH 7.0. The developed reaction is read on a Molecular Devices Analyst or Acquest (or equivalent) plate reader using a 530 nm excitation wavelength filter, a 580 nm emission filter, and 561 nm dichroic filter. The test compounds are prepared in neat DMSO at a concentration of 10 mM. For inhibition curves, compounds are diluted using a three fold serial dilution and tested at 11 concentrations (e.g. 25 μM-0.42 nM). Curves are analysed using ActivityBase and XLfit, and results are expressed as pIC50 values.
Inhibition of FAS can also be quantified based on the detection of the CoA products with a thio-reactive coumarin dye. This assay is run as a 10 μL endpoint assay in 384-well format, where the reaction contains 20 μM malonyl-CoA, 20 μM acetyl-CoA, 40 μM NADPH and 2 nM FAS in 50 mM sodium phosphate, pH 7.0, and 0.04% Tween-20. The assay is run by adding 5 μL enzyme solution to a black, low volume assay plate (Greiner 784076) pre-dispensed with 100 nl compound solutions in DMSO. After 30 minutes, 5 μL substrate is added, and the reaction incubated at ambient temperature for an additional 60 minutes. The reaction is then quenched with 10 μL of 6M guanidine-HCl containing 50 μM CPM (7-diethylamino-3-(4′-maleimidylphenyl)-4-methylcoumarin (CPM; thio-reactive dye), and incubated for 30 minutes. The plate is read on an Envision (PerkinElmer) or equivalent plate reader using a 380 nm excitation wavelength filter, and a 486 nm emission filter. Data fitting and compound preparations are done as described above.
The term IC50 denotes the concentration that inhibits the measured activity by half. A high value points to weaker potency in that assay. Take `Cn1ncc2c(=O)n(C[C@@H]3CCN(C(=O)C4CC4)C3)c(-c3ccc(-c4ccc5[nH]ccc5c4)cc3)nc21` [Example 1, 5-{[(3R)-1-(cyclopropylcarbonyl)-3-pyrrolidinyl]methyl}-6-[4-(1H-indol-5-yl)phenyl]-1-methyl-1,5-dihydro-4H-pyrazolo[3,4-d]pyrimidin-4-one]: the IC50 was found to be 7.9 nM.

As for `Cc1nc2c(=O)n(C[C@@H]3CCN(C(=O)C4CC4)C3)c(-c3ccc(-c4ccc5[nH]ncc5c4)cc3)nc2o1` [Example 11, 6-{[(3R)-1-(cyclopropylcarbonyl)-3-pyrrolidinyl]methyl}-5-[4-(1H-indazol-5-yl)phenyl]-2-methyl[1,3]oxazolo[5,4-d]pyrimidin-7(6H)-one], the IC50 was 25.1 nM.

In turn, `COc1ccc(-c2ccc(-c3nc4ccccc4c(=O)n3C[C@@H]3CCN(C(=O)C4CC4)C3)cc2)c(Cl)c1` [Example 24, 2-[2-chloro-4(methoxy)-4-bipheny]-3-{[(3R)-1-(cyclopropylcarbonyl)-3-pyrrolidinyl]methyl}-4(3H)-quinazolinone] gave an IC50 of 200 nM.

Compound `Cc1cc(=O)n(C[C@@H]2CCN(C(=O)C3CC3)C2)c(-c2ccc(-c3ccc4[nH]ccc4c3)cc2)n1` [Example 26] registered an IC50 of 3.16 nM.

Turning to `Cc1cc(=O)n(-c2ccc(-c3ccc4cc[nH]c4c3)cc2)c(C[C@@H]2CCN(C(=O)C3CC3)C2)n1` [Example 47, 2-{[(3S)-1-(cyclopropylcarbonyl)-3-pyrrolidinyl]methyl}-1-[4-(1H-indol-6-yl)phenyl]-6-methyl-4(3H)-pyrimidinone], the IC50 amounted to 10 nM.

With `Cc1cc(=O)nc(C[C@@H]2CCN(C(=O)C3CC3)C2)n1-c1ccc(-c2ccc3occc3c2)cc1` [Example 49, 1-[4-(1-benzofuran-5-yl)phenyl]-2-{[(3S)-1-(cyclopropylcarbonyl)-3-pyrrolidinyl]methyl}-6-methyl-4(1H)-pyrimidinone], the concentration for half-maximal inhibition (IC50) stood at 3160 nM.

The record behind these values is patent publication US20130303551A1, “PYRIMIDINONE DERIVATIVES AS FATTY ACID SYNTHASE INHIBITORS” (priority 2011, published 2013).
